Test: Dilution stability of epothilone D formulations, visual appearance
Type: physicochemical
Parameters: key: remained clear; ppt: precipitation; xtal: crystallization
Conditions: for Visual Appearance RODI Dilution 0 h / Visual Appearance RODI Dilution 12 h / Visual Appearance RODI Dilution 24 h / Visual Appearance RODI Dilution 36 h / Visual Appearance RODI Dilution 48 h: 1:10 into RODI water; for Visual Appearance Initial: undiluted
Protocol: The dilution stability of epothilone D formulations at 8-20 mg/mL in various formulations was examined. A stock solution of epothilone D (100 mg/mL) was prepared in ethanol. Epothilone D formulations were prepared as listed in the following tables by addition of the requisite amount of ethanol, PEG400, 10% Tween® 80, and either propylene glycol or glycerol to the appropriate volume of the epothilone D stock solution. The solubility of epothilone D in each vial was observed visually following gentle swirling. Each formulation was syringe filtered through a 0.2 micron PVDF filter. Each formulation was subsequently diluted 1:8, 1:10, or 1:12 in reverse osmosis deionized water (RODI) or 0.9% saline. Visual observations were taken upon preparation, upon dilution, and both 1 and 24 hours after incubation at ambient temperature.
The dilution stability up to 48 hours post-dilution was examined for the above formulations containg 8-11 mg/mL of epothilone D after 1:10 dilution into either RODI water or 0.45% saline, as summarized in Tables 12 and 13 below.

[1] = 8 mg/mL epo D in 10% Tween 80, 50% ethanol, 30% PEG400, 10% propylene glycol
[2] = 8 mg/mL epo D in 10% Tween 80, 50% ethanol, 30% PEG400, 10% propylene glycol, 0.9% saline
[3] = 8 mg/mL epo D in 10% Tween 80, 50% ethanol, 30% PEG400, 10% propylene glycol, 1:10 into 0.45% saline
[4] = 8 mg/mL epo D in 10% Tween 80, 60% ethanol, 20% PEG400, 10% glycerol
[5] = 8 mg/mL epo D in 10% Tween 80, 60% ethanol, 20% PEG400, 10% glycerol, 0.9% saline
[6] = 8 mg/mL epo D in 10% Tween 80, 60% ethanol, 20% PEG400, 10% glycerol, 1:10 into 0.45% saline
[7] = 9 mg/mL epo D in 10% Tween 80, 50% ethanol, 30% PEG400, 10% propylene glycol, 1:10 into 0.45% saline
[8] = 9 mg/mL epo D in 10% Tween 80, 50% ethanol, 30% PEG400, 10% propylene glycol
[9] = 9 mg/mL epo D in 10% Tween 80, 60% ethanol, 20% PEG400, 10% glycerol, 1:10 into 0.45% saline
[10] = 9 mg/mL epo D in 10% Tween 80, 60% ethanol, 20% PEG400, 10% glycerol
[11] = 10 mg/mL epo D in 10% Tween 80, 50% ethanol, 30% PEG400, 10% propylene glycol
[12] = 10 mg/mL epo D in 10% Tween 80, 50% ethanol, 30% PEG400, 10% propylene glycol, 0.9% saline
[13] = 10 mg/mL epo D in 10% Tween 80, 50% ethanol, 30% PEG400, 10% propylene glycol, 1:10 into 0.45% saline
[14] = 10 mg/mL epo D in 10% Tween 80, 60% ethanol, 20% PEG400, 10% glycerol
[15] = 10 mg/mL epo D in 10% Tween 80, 60% ethanol, 20% PEG400, 10% glycerol, 0.9% saline
[16] = 10 mg/mL epo D in 10% Tween 80, 60% ethanol, 20% PEG400, 10% glycerol, 1:10 into 0.45% saline

C/C1=C/CC(/C(C)=C/c2csc(C)n2)OC(=O)C[C@H](O)C(C)(C)C(=O)[C@H](C)[C@@H](O)[C@@H](C)CCC1 (some centres unmarked) [Epothilone D, Desoxyepothilone B]
Visual Appearance RODI Dilution 1:08 0 h [1]: clear | Visual Appearance RODI Dilution 1:08 24 h [1]: clear | Visual Appearance RODI Dilution 1:10 0 h [1]: clear | Visual Appearance RODI Dilution 1:10 24 h [1]: clear | Visual Appearance RODI Dilution 1:12 0 h [1]: clear | Visual Appearance RODI Dilution 1:12 24 h [1]: clear | Visual Appearance Saline Dilution 1:08 1 h [2]: xtal | Visual Appearance Saline Dilution 1:10 1 h [2]: xtal | Visual Appearance Saline Dilution 1:12 1 h [2]: clear | Visual Appearance Saline Dilution 1:12 24 h [2]: xtal | Visual Appearance Saline Dilution 0 h [3]: clear | Visual Appearance Saline Dilution 12 h [3]: xtal | Visual Appearance RODI Dilution 0 h [1]: clear | Visual Appearance RODI Dilution 12 h [1]: clear | Visual Appearance RODI Dilution 24 h [1]: clear | Visual Appearance RODI Dilution 36 h [1]: clear | Visual Appearance RODI Dilution 48 h [1]: clear | Visual Appearance Initial [1]: clear | Visual Appearance RODI Dilution 1:08 0 h [4]: clear | Visual Appearance RODI Dilution 1:08 24 h [4]: clear | Visual Appearance RODI Dilution 1:10 0 h [4]: clear | Visual Appearance RODI Dilution 1:10 24 h [4]: clear | Visual Appearance RODI Dilution 1:12 0 h [4]: clear | Visual Appearance RODI Dilution 1:12 24 h [4]: clear | Visual Appearance Saline Dilution 1:08 1 h [5]: clear | Visual Appearance Saline Dilution 1:08 24 h [5]: xtal | Visual Appearance Saline Dilution 1:10 1 h [5]: xtal | Visual Appearance Saline Dilution 1:12 1 h [5]: xtal | Visual Appearance Saline Dilution 0 h [6]: clear | Visual Appearance Saline Dilution 12 h [6]: xtal | Visual Appearance RODI Dilution 0 h [4]: clear | Visual Appearance RODI Dilution 12 h [4]: clear | Visual Appearance RODI Dilution 24 h [4]: clear | Visual Appearance RODI Dilution 36 h [4]: xtal | Visual Appearance Initial [4]: clear | Visual Appearance Saline Dilution 0 h [7]: clear | Visual Appearance Saline Dilution 12 h [7]: xtal | Visual Appearance RODI Dilution 0 h [8]: clear | Visual Appearance RODI Dilution 12 h [8]: clear | Visual Appearance RODI Dilution 24 h [8]: clear | Visual Appearance RODI Dilution 36 h [8]: clear | Visual Appearance RODI Dilution 48 h [8]: clear | Visual Appearance Saline Dilution 0 h [9]: clear | Visual Appearance Saline Dilution 12 h [9]: xtal | Visual Appearance RODI Dilution 0 h [10]: clear | Visual Appearance RODI Dilution 12 h [10]: clear | Visual Appearance RODI Dilution 24 h [10]: clear | Visual Appearance RODI Dilution 36 h [10]: xtal | Visual Appearance RODI Dilution 1:08 0 h [11]: clear | Visual Appearance RODI Dilution 1:08 24 h [11]: clear | Visual Appearance RODI Dilution 1:10 0 h [11]: clear | Visual Appearance RODI Dilution 1:10 24 h [11]: clear | Visual Appearance RODI Dilution 1:12 0 h [11]: clear | Visual Appearance RODI Dilution 1:12 24 h [11]: clear | Visual Appearance Saline Dilution 1:08 1 h [12]: xtal | Visual Appearance Saline Dilution 1:10 1 h [12]: xtal | Visual Appearance Saline Dilution 1:12 1 h [12]: xtal | Visual Appearance Saline Dilution 0 h [13]: clear | Visual Appearance Saline Dilution 12 h [13]: clear | Visual Appearance Saline Dilution 24 h [13]: clear | Visual Appearance Saline Dilution 36 h [13]: xtal | Visual Appearance Initial [11]: clear | Visual Appearance RODI Dilution 1:08 0 h [14]: clear | Visual Appearance RODI Dilution 1:08 24 h [14]: clear | Visual Appearance RODI Dilution 1:10 0 h [14]: clear | Visual Appearance RODI Dilution 1:10 24 h [14]: clear | Visual Appearance RODI Dilution 1:12 0 h [14]: clear | Visual Appearance RODI Dilution 1:12 24 h [14]: clear | Visual Appearance Saline Dilution 1:08 1 h [15]: clear | Visual Appearance Saline Dilution 1:08 24 h [15]: xtal | Visual Appearance Saline Dilution 1:10 1 h [15]: xtal | Visual Appearance Saline Dilution 1:12 1 h [15]: xtal | Visual Appearance Saline Dilution 0 h [16]: clear | Visual Appearance Saline Dilution 12 h [16]: xtal

From US8618085B2, “Therapeutic formulations of desoxyepothilones” (Koasn Biosciences Incorporated, priority 2000, dated 2013)
